Values of other authors, collected in paper PMC8176454, “Synthesis and Assessment of Novel Probes for Imaging Tau Pathology in Transgenic Mouse and Rat Models” (ACS Chemical Neuroscience, 2021).

System: tau aggregates in P301S tau and GSK3-β X P301L tau (biGT) mice
Design: method as in PMID 26912432
Settings: cited from earlier work

**Q.** For `CNc1ccc(-c2ccc3cc(OCC(O)C[18F])ccc3n2)cc1` (stereo not shown) [[^18F]THK5117], which “Binding to tau aggregates in two transgenic mouse models” value is on record?
**A.** bound to tau aggregates
